Test results reported in the supplement of paper PMC10883282.
± gives the standard deviation of the averaged measurements.

Tested on: SK-LMS-1
Assay: relative viability vs DMSO control (72 h) (fraction); higher = more viable cells
How it was run: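 Relative viability was measured with ATPLite and expressed as percent growth, averaged across up to triplicate wells. Sarcoma cell lines had been seeded in 384-well plates to reach 80–90% confluence, dosed after 24 h, and incubated 72 h at 37 °C, 5% CO2. All data were rescaled on a scale where 1 is full and 0 is none.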

| Compound | relative viability (0.00017 µM) | relative viability (0.00051 µM) | relative viability (0.00152 µM) | relative viability (0.00457 µM) | relative viability (0.01372 µM) | relative viability (0.04115 µM) | relative viability (0.1235 µM) | relative viability (0.3704 µM) | relative viability (1.111 µM) | relative viability (3.333 µM) | relative viability (10 µM) |
| --- | --- | --- | --- | --- | --- | --- | --- | --- | --- | --- | --- |
| CO[C@H]1C[C@@H]2CC[C@@H](C)[C@@](O)(O2)C(=O)C(=O)N2CCCC[C@H]2C(=O)O[C@H]([C@H](C)C[C@@H]2CC[C@@H](OP(C)(C)=O)[C@H](OC)C2)CC(=O)[C@H](C)/C=C(\C)[C@@H](O)[C@@H](OC)C(=O)[C@H](C)C[C@H](C)/C=C/C=C/C=C/1C [Ridaforolimus] | 1.01 ± 0.067 | 0.903 ± 0.025 | 0.753 ± 0.016 | 0.67 ± 0.018 | 0.632 ± 0.029 | 0.594 ± 0.031 | 0.559 ± 0.022 | 0.563 ± 0.031 | 0.554 ± 0.021 | 0.5602 ± 0.0032 | 0.5145 ± 0.0018 |
| O=C(Cc1ccc(-c2ccc(OCCN3CCOCC3)cc2)cn1)NCc1ccccc1 [KX2-391] | 1.03 ± 0.047 | 1.02 ± 0.02 | 1.05 ± 0.019 | 1 ± 0.038 | 0.99 ± 0.038 | 0.704 ± 0.034 | 0.537 ± 0.023 | 0.361 ± 0.0063 | 0.338 ± 0.021 | 0.344 ± 0.018 | 0.333 ± 0.0098 |
| COc1cc2nccc(Oc3ccc(NC(=O)Nc4cc(C)on4)c(Cl)c3)c2cc1OC [Tivozanib] | 1.01 ± 0.022 | 0.999 ± 0.029 | 1.05 ± 0.04 | 1.05 ± 0.037 | 1.03 ± 0.038 | 0.9926 ± 0.0016 | 0.989 ± 0.036 | 1.08 ± 0.044 | 1.16 ± 0.043 | 0.908 ± 0.058 | 0.462 ± 0.015 |
| CCc1cc2c(cc1N1CCC(N3CCOCC3)CC1)C(C)(C)c1[nH]c3cc(C#N)ccc3c1C2=O [Alectinib] | 1.06 ± 0.056 | 1.1 ± 0.043 | 1.08 ± 0.041 | 1.1 ± 0.027 | 1.12 ± 0.018 | 1.08 ± 0.06 | 1.119 ± 0.0081 | 1.12 ± 0.0046 | 1.1 ± 0.019 | 1.11 ± 0.021 | 1.08 ± 0.016 |
| COCc1c(-c2cc3cc(C)cc(OC)c3s2)c2c(N)ncnn2c1CN1CCNC(=O)C1 [Rogaratinib] | 1.01 ± 0.034 | 0.992 ± 0.026 | 1.02 ± 0.022 | 1.01 ± 0.044 | 0.995 ± 0.022 | 0.992 ± 0.035 | 1 ± 0.01 | 0.975 ± 0.017 | 0.96 ± 0.036 | 0.76 ± 0.019 | 0.589 ± 0.017 |
| CN1CCC(COc2cnc(-c3cccc(Cn4nc(-c5cccc(C#N)c5)ccc4=O)c3)nc2)CC1 [Tepotinib] | 1.06 ± 0.027 | 1.05 ± 0.022 | 1.01 ± 0.037 | 1.05 ± 0.039 | 1 ± 0.047 | 0.833 ± 0.017 | 0.597 ± 0.019 | 0.526 ± 0.0067 | 0.489 ± 0.0072 | 0.461 ± 0.02 | 0.361 ± 0.028 |
| Cc1cnc(Nc2ccc(OCCN3CCCC3)cc2)nc1Nc1cccc(S(=O)(=O)NC(C)(C)C)c1 [Fedratinib] | 1.01 ± 0.035 | 1 ± 0.068 | 1.04 ± 0.041 | 1.08 ± 0.062 | 1.04 ± 0.012 | 1.01 ± 0.042 | 0.99 ± 0.018 | 0.904 ± 0.034 | 0.7315 ± 0.0026 | 0.407 ± 0.011 | 0.0111 ± 0.0012 |
| Cn1cnc2c(F)c(Nc3ccc(Br)cc3F)c(C(=O)NOCCO)cc21 [Binimetinib] | 1.11 ± 0.03 | 1.16 ± 0.045 | 1.13 ± 0.034 | 1.07 ± 0.073 | 1 ± 0.011 | 0.879 ± 0.01 | 0.725 ± 0.039 | 0.646 ± 0.038 | 0.61 ± 0.016 | 0.484 ± 0.011 | 0.375 ± 0.028 |
| C[C@@H]1CCN(C(=O)CC#N)C[C@@H]1N(C)c1ncnc2[nH]ccc12 [Tofacitinib] | 1.08 ± 0.053 | 1.05 ± 0.057 | 1.1 ± 0.057 | 1.11 ± 0.042 | 1.09 ± 0.064 | 1.07 ± 0.031 | 1.062 ± 0.0089 | 1.07 ± 0.022 | 1.07 ± 0.039 | 1.03 ± 0.039 | 0.902 ± 0.056 |
| Nc1cc(C(F)(F)F)c(-c2cc(N3CCOCC3)nc(N3CCOCC3)n2)cn1 [Buparlisib] | 1.02 ± 0.031 | 0.9986 ± 0.0078 | 1.01 ± 0.035 | 1.02 ± 0.013 | 1.01 ± 0.038 | 0.9304 ± 0.0067 | 0.825 ± 0.018 | 0.686 ± 0.015 | 0.3771 ± 0.0013 | 0.148 ± 0.0057 | 0.102 ± 0.0085 |
| Cn1cc(-c2cc3c(N4CCN(c5ncc([C@@](C)(N)c6ccc(F)cc6)cn5)CC4)ncnn3c2)cn1 [Avapritinib] | 0.9488 ± 0.004 | 0.959 ± 0.072 | 0.999 ± 0.047 | 0.989 ± 0.049 | 0.973 ± 0.061 | 0.978 ± 0.023 | 0.9338 ± 0.0068 | 0.911 ± 0.012 | 0.877 ± 0.03 | 0.7843 ± 0.0066 | 0.829 ± 0.026 |
| C=CC(=O)N1CCC([C@@H]2CCNc3c(C(N)=O)c(-c4ccc(Oc5ccccc5)cc4)nn32)CC1 [Zanubrutinib] | 0.996 ± 0.023 | 1.04 ± 0.055 | 1.03 ± 0.05 | 1.051 ± 0.0069 | 1.01 ± 0.06 | 1.05 ± 0.015 | 1.03 ± 0.025 | 1.08 ± 0.021 | 1.06 ± 0.012 | 1.07 ± 0.012 | 1.05 ± 0.04 |
| CCCS(=O)(=O)Nc1ccc(F)c(C(=O)c2c[nH]c3ncc(-c4ccc(Cl)cc4)cc23)c1F [Vemurafenib] | 0.994 ± 0.053 | 0.988 ± 0.079 | 1.01 ± 0.081 | 1.06 ± 0.053 | 1.03 ± 0.028 | 0.979 ± 0.06 | 1.02 ± 0.013 | 0.959 ± 0.01 | 0.855 ± 0.033 | 0.667 ± 0.018 | 0.697 ± 0.1 |
| COc1cc2c(Oc3ccc4[nH]c(C)cc4c3F)ncnc2cc1OCCCN1CCCC1 [Cediranib] | 1.01 ± 0.011 | 1.02 ± 0.028 | 1.02 ± 0.038 | 1.03 ± 0.052 | 0.989 ± 0.025 | 1.02 ± 0.042 | 0.98 ± 0.017 | 0.977 ± 0.025 | 0.925 ± 0.013 | 0.911 ± 0.029 | 0.462 ± 0.066 |
